Values of other authors, collected in patent US20080234197A1, “Method(s) of stabilizing and potentiating the actions and administration of brain-derived neurotrophic factor (BDNF)” (priority 2007, published 2008).
Like-named read-outs stand apart in the source and are kept apart here.

Tests used:
[1] = system: syntaxin 3; conditions: upon addition of fatty acid
[2] = system: ARH explants; conditions: 100 ng/ml for 72 hours, explants from neonatal mice, vs control
[3] = system: NPY and POMC neurons in the hypothalamus; conditions: ob/ob mice, after administration
[4] = system: glioma cells
[5] = system: spinal cord neurons
[6] = system: db/db mice; conditions: once or twice per week (70 mg/kg/wk) for 3 weeks, vs control

Molecule: CC/C=C\C/C=C\C/C=C\CCCCCCCC(=O)O [ALA, alpha-linolenic acid]
- intrinsic tyrosine fluorescence of syntaxin 3 [1]: marked changes

Molecule: leptin: adiposity hormone produced by the white adipose tissue
- induction of neurites from ARH explants [2]: significant induction of neurites
- time to normalization of synaptic density [3]: ≤ 6 h

Molecule: CCCCCCCC/C=C\CCCCCCCC(=O)O [oleic acid]
- intrinsic tyrosine fluorescence of syntaxin 3 [1]: ineffective

Molecule: CCCCC/C=C\C/C=C\C/C=C\C/C=C\CCCC(=O)O [AA, arachidonic acid]
- dopamine uptake ([4]; 20-160 microM, pre-incubated 15-30 min): stimulated
- dopamine uptake ([4]; 160 microM, longer pre-exposures 45-60 min): inhibited
- expression of BDNF ([5]; 2-hour exposure, spinal cord neurons): markedly diminished
- intrinsic tyrosine fluorescence of syntaxin 3 [1]: marked changes

Molecule: CCCCC/C=C\C/C=C\CCCCCCCC(=O)O [LA, cis-linoleic acid]
- intrinsic tyrosine fluorescence of syntaxin 3 [1]: marked changes

Molecule: CN1CCCC1c1cccnc1 (centres unmarked) [nicotine]
- protection against arachidonic acid-induced apoptosis of spinal cord neurons [5]: fully protected
- prevention of arachidonic acid-induced decrease of BDNF expression ([5]; pretreatment with 10-microM): fully prevented

B1: BDNF: brain-derived neurotrophic factor, a neurotrophin protein (protein, UniProt P23560 19-247, looked up)
Neurotrophic factor BDNF …: APMKEANIRGQGGLAYPGVRTHGTLESVNGPKAGSRGLTSLADTFEHVIEELLDEDQKVRPNEENNKDADLYTSRVMLSSQVPLEPPLLFLLEEYKNYLDAANMSMRVRRHSDPARRGELSVCDSISEWVTAADKKTAVDMSGGTVTVLEKVPVSKGQLKQYFYETKCNPMGYTKEGCRGIDKRHWNSQCRTTQSYVRALTMDSKKRIGWRFIRIDTSCVCTLTIKRGR
- protection against arachidonic acid-induced apoptosis of spinal cord neurons [5]: fully protected
- blood glucose concentrations [6]: significantly reduced
- hemoglobin A1c (HbA1c) [6]: significantly reduced
